Test [1] deals with Maximal electroshock seizures. As to the kind of experiment: MES maximal electroshock seizure test, mice ip. The test is classed as in vivo. The following applies: for responders at 100 mg/kg / responders at 300 mg/kg / responders at 30 mg/kg: Mus musculus, ip; for responders at 100 mg/kg: read-out: MES, animals protected/tested (converted); for responders at 300 mg/kg / responders at 30 mg/kg: read-out: MES, animals protected/tested. How it is done:
Three tests were performed:
1. MES--Electroshock Seizure Test
(§1) Maximal electroshock seizures are elicited with a 60-cycle alternating current of 50 mA intensity (5-7 times that necessary to elicit minimal electroshock seizures) delivered via corneal electrodes for 0.2 seconds. A drop of 0.9% saline is instilled in the eye prior to application of the electrodes in order to […].

The test system of test [2] is Subcutaneous Pentylenetetrazol seizure. Briefly: sc Met subcutaneous pentylenetetrazol (Metrazol) seizure test, mice. It is filed as in vivo. The following applies: for responders at 100 mg/kg / responders at 300 mg/kg / responders at 30 mg/kg: Mus musculus, sc; for responders at 100 mg/kg / responders at 300 mg/kg: read-out: scMet, animals protected/tested (converted); for responders at 30 mg/kg: read-out: scMet, animals protected/tested; for scMet evaluation: Phase I.
Procedure: 2. sc Met--Subcutaneous Pentylenetetrazol (Metrazol^R) Seizure Test
The animal is observed for 30 minutes. Failure to observe even a threshold seizure (a single episode of clonic spasms of at least 5 seconds duration) is defined as protection and the results are expressed as the number of animals protected/the number of animals tested.

In test [3] the test system is seizures. Briefly: Anticonvulsant evaluation (ASP phase I / overall). The test is classed as in vivo, mice. The following applies: for minimal effective dose: Mus musculus, ip, Phase I, read-out: ASP Classification; for anticonvulsant activity / phase I evaluations: mouse, in vivo; for activity compared with 12: substituted benzylamines; for activity compared with benzylamine counterpart: 27 vs 16, 28 vs 17, 29 vs 20. How it is done:
The first phase of the ADD Program involved performing tests on male Carworth Farms #1 mice. […] Three tests were performed:
as §1
The animal is observed for 30 minutes.

Test [4] relates to Maximal electroshock seizures. As to the kind of experiment: Phase VI oral MES test, rats. The test is classed as in vivo. The note with it: oral, 50 mg/kg.
From the text: as §1
This oral screen is designated as phase VI.

Where [5] appears, read: 0.5 h, 300 mg/kg, 30 min, second trial.

SMILES strings stand for the structures. “Also recorded” adds a separate entry of the source. Read-outs that look alike come from different tables or passages of the source.

For the compound `CCc1ccc(NC2=CC(=O)C(C(=O)OC)C(C)C2)cc1` (centres unmarked) [Compound 26], the responders at 100 mg/kg in test [1] (0.5 h, 100 mg/kg, 30 min) is 66.7%; in test [1] (4 h, 100 mg/kg, 4 h) it was 0%; in test [2] (0.5 h, 100 mg/kg, 30 min) it was 0%; in test [2] (4 h, 100 mg/kg, 4 h), 0%. In addition, the minimal effective dose in test [3] is less than 100 mg/kg. Further, the “anticonvulsant activity” value in test [3] is given as “anticonvulsant activity was observed”.

Turning to `COC(=O)C1C(=O)C=C(NCCc2ccccc2)CC1(C)C` (centres unmarked) [Compound 14], the responders at 100 mg/kg in test [1] (0.5 h, 100 mg/kg, 30 min) was 33.3%; in test [1] (4 h, 100 mg/kg, 4 h) it was 0%; in test [2] (0.5 h, 100 mg/kg, 30 min), 0%; in test [2] (4 h, 100 mg/kg, 4 h) it was 0%. Also, the responders at 300 mg/kg in test [1] (0.5 h, 300 mg/kg, 30 min) is 100%; in test [1] (4 h, 300 mg/kg, 4 h), 0%; in test [2] (0.5 h, 300 mg/kg, 30 min), 0%; in test [2] (4 h, 300 mg/kg, 4 h), 0%. In test [3], the minimal effective dose was less than 100 mg/kg.

For the compound `O=C1C=C(NCc2ccccc2)CCC1` [Compound 153], the “MES, animals protected/tested” value was 3/3 in test [1] (100 mg/kg, 30 min); 0/3 in test [1] (100 mg/kg, 4 h); 1/1 in test [1] (300 mg/kg, 30 min); 1/1 in test [1] (300 mg/kg, 4 h); 0/4 in test [4] (0.25 h); 2/4 in test [4] (0.50 h). The results for the “MES, animals protected/tested” value in test [4] (1.00 h), in test [4] (2.00 h) and in test [4] (4.00 h) were 3/4, 3/4 and 1/4, respectively. For the same compound, the “scMet, animals protected/tested” value in test [2] (100 mg/kg, 30 min) is recorded as 0/1; in test [2] (100 mg/kg, 4 h), 0/1; in test [2] (300 mg/kg, 30 min), 0/1; in test [2] (300 mg/kg, 4 h), 0/1.

On to `COC(=O)C1C(=O)C=C(Nc2cc(C)ccc2OC)CC1C` (centres unmarked) [Compound 30], for which, in test [3], the “anticonvulsant activity” value is on record as “anticonvulsant activity was observed”.

As for `COC(=O)C1C(=O)C=C(NN2CCOCC2)CC1C` (centres unmarked) [Compound 33], in test [3], the “phase I evaluations” value is “neither was active”.

As to `CC1(C)CC(=O)C=C(Nc2ccc(C(C)(C)C)cc2)C1` [Compound 143], the responders at 100 mg/kg in test [1] (0.5 h, 100 mg/kg, 30 min) is 0%; in test [1] (4 h, 100 mg/kg, 4 h) it was 0%; in test [2] (0.5 h, 100 mg/kg, 30 min), 20%; in test [2] (4 h, 100 mg/kg, 4 h), 0%. Also, the responders at 300 mg/kg is 0% in test [1] (0.5 h, 300 mg/kg, 30 min); 0% in test [1] (4 h, 300 mg/kg, 4 h); 20% in test [2] (0.5 h, 300 mg/kg, 30 min); 0% in test [2] (4 h, 300 mg/kg, 4 h). For the same compound, the minimal effective dose in test [3] was less than 100 mg/kg.

In the case of `CC1(C)CC(=O)C=C(NCc2ccccc2)C1` [Compound 19], the responders at 100 mg/kg in test [1] (0.5 h, 100 mg/kg, 30 min) was 33.3%; in test [1] (4 h, 100 mg/kg, 4 h), 0%; in test [2] (0.5 h, 100 mg/kg, 30 min), 0%; in test [2] (4 h, 100 mg/kg, 4 h), 0%. The responders at 300 mg/kg in test [1] (0.5 h, 300 mg/kg, 30 min) is 100%; in test [1] (4 h, 300 mg/kg, 4 h), 100%; in test [2] (0.5 h, 300 mg/kg, 30 min) it was 0%; in test [2] (4 h, 300 mg/kg, 4 h), 0%. The minimal effective dose in test [3] was less than 100 mg/kg. Also, in test [3], the “anticonvulsant activity” value is given as “potent anticonvulsants”.

Consider `COC(=O)C1C(=O)C=C(Nc2ccccc2)CC1C` (centres unmarked) [Compound 24], for which the “anticonvulsant activity” value in test [3] was “activity was lost; also recorded: inactive”.

Take `COC(=O)C1C(=O)C=C(NN2CCOCC2)CC1C` (centres unmarked) [Compound 34]: the “phase I evaluations” value in test [3] is given as “neither was active”.

For the compound `COC(=O)C1C(=O)C=C(NCc2ccc(C)cc2)CC1C` (centres unmarked) [Compound 17], in test [3], the “anticonvulsant activity” value was “inactive” and the “activity compared with 12” value is reported as “only a slight modification in activity”.

Turning to `COC(=O)C1C(=O)C=C(Nc2ccc(C)cc2)CC1C` (centres unmarked) [Compound 28], the responders at 30 mg/kg was 0% in test [1] (0.5 h, 30 min); 0% in test [1] (4 h, 4 h); 0% in test [2] (0.5 h, 30 min, second trial); 100% in test [2] (0.5 h, 30 min); 0% in test [2] (4 h, 4 h). The responders at 300 mg/kg is 100% in test [1] (0.5 h, 300 mg/kg, 30 min); 0% in test [1] (4 h, 300 mg/kg, 4 h); 0% in test [2] (0.5 h, 300 mg/kg, 30 min); 0% in test [2] (4 h, 300 mg/kg, 4 h). Further, in test [2], the “scMet evaluation” value is on record as “spurious results”. Besides, in test [3], the “activity compared with benzylamine counterpart” value is “activity is enhanced in all cases”. For the same compound, in test [3], the minimal effective dose is less than 100 mg/kg. Moreover, the “anticonvulsant activity” value in test [3] is listed as “anticonvulsant activity was observed”.

Consider `COC(=O)C1C(=O)C=C(NCc2ccc(C(=O)O)cc2)CC1C` (centres unmarked) [Compound 18], for which, in test [3], the “anticonvulsant activity” value is “inactive” and the “activity compared with 12” value is “only a slight modification in activity”.

For the compound `O=C1C=C(NCc2ccccc2)CC(c2ccccc2)C1C(=O)NCc1ccccc1` (centres unmarked) [Compound 11], the “anticonvulsant activity” value in test [3] is “inactive”.

Regarding `COC(=O)C1C(=O)C=C(Nc2cc(OC)ccc2OC)CC1C` (centres unmarked) [Compound 31, methyl 4-(2', 5'-dimethoxy)-phenylamino-6-methyl-2-oxo-cyclohex-3-en-1-oate], the responders at 100 mg/kg is 33.3% in test [1] (0.5 h, 100 mg/kg, 30 min); 0% in test [1] (4 h, 100 mg/kg, 4 h); 0% in test [2] (0.5 h, 100 mg/kg, 30 min); 0% in test [2] (4 h, 100 mg/kg, 4 h). The responders at 300 mg/kg in test [1] (0.5 h, 300 mg/kg, 30 min) was 100%; in test [1] (4 h, 300 mg/kg, 4 h), 0%; in test [2] (0.5 h, 300 mg/kg, 30 min), 0%; in test [2] (4 h, 300 mg/kg, 4 h), 0%. For the same compound, the minimal effective dose in test [3] is less than 100 mg/kg. Besides, in test [3], the “anticonvulsant activity” value was “anticonvulsant activity was observed”.

For the compound `COC(=O)C1C(=O)C=C(NNc2ccccc2)CC1C` (centres unmarked) [Compound 25], the responders at 300 mg/kg was 100% in test [1] (0.5 h, 300 mg/kg, 30 min); 0% in test [1] (4 h, 300 mg/kg, 4 h); 0% in test [2] (setting [5]); 100% in test [2] (0.5 h, 300 mg/kg, 30 min); 0% in test [2] (4 h, 300 mg/kg, 4 h). Further, the “scMet evaluation” value in test [2] is “spurious results”. In addition, the minimal effective dose in test [3] is greater than 100 mg/kg.

Turning to `COC(=O)C1C(=O)C=C(NCc2ccc(Cl)cc2)CC1C` (centres unmarked) [Compound 16], the responders at 300 mg/kg in test [1] (0.5 h, 300 mg/kg, 30 min) is 100%; in test [1] (4 h, 300 mg/kg, 4 h), 100%; in test [2] (setting [5]) it was 0%; in test [2] (0.5 h, 300 mg/kg, 30 min) it was 100%; in test [2] (4 h, 300 mg/kg, 4 h), 0%. The “scMet evaluation” value in test [2] is “spurious results”. In addition, the minimal effective dose in test [3] was greater than 100 mg/kg. Besides, the “activity compared with 12” value in test [3] is “only a slight modification in activity”.

For the compound `COC(=O)C1C(=O)C=C(Nc2ccc([N+](=O)[O-])cc2)CC1C` (centres unmarked) [Compound 29], the responders at 100 mg/kg in test [1] (0.5 h, 100 mg/kg, 30 min) is 0%; in test [1] (4 h, 100 mg/kg, 4 h) it was 0%; in test [2] (0.5 h, 100 mg/kg, 30 min, second trial), 0%; in test [2] (0.5 h, 100 mg/kg, 30 min), 100%; in test [2] (4 h, 100 mg/kg, 4 h), 0%. In test [3], the “activity compared with benzylamine counterpart” value is on record as “activity is enhanced in all cases”. Also, the minimal effective dose in test [3] is less than 100 mg/kg.

For `COC(=O)C1C(=O)C=C(Nc2ccc(O)cc2)CC1C` (centres unmarked) [Compound 35], the “anticonvulsant activity” value in test [3] is “inactive”.

For `COC(=O)C1C(=O)C=C(NCc2ccc([N+](=O)[O-])cc2)CC1C` (centres unmarked) [Compound 20], the “activity compared with 12” value in test [3] is given as “only a slight modification in activity”.

Consider `COC(=O)C1C(=O)C=C(Nc2ccc(C(=O)O)cc2)CC1C` (centres unmarked) [Compound 32], for which the “anticonvulsant activity” value in test [3] was “comparable to inactive 18 in the benzylamine series”.

The values are drawn from US5616615A, “Enaminone esters” (priority 1995, dated 1997).
